One test has as its system atrogin-1. The test can be described thus: atrogin-1 mRNA expression by RT-PCR in TNF-α-treated L6 muscle cells. Type of test: cell-based. The conditions noted are these: differentiated L6 muscle cells, 50 ng/mL TNF-α. As for the experimental part:
L6 myoblast (ATCC) was added to a 6-well plate at 2×10^5 cells/ml together with DMEM (Hyclone) containing 10% FBS (Hyclone). When the cell density reached about 80% to 85%, the medium in the wells was removed and myotube differentiation was induced by treating the cells with DMEM (Hyclone) containing 2% HS (Hyclone). The medium was replaced with fresh medium every two days and the differentiation was carried out for a total of 6 days. After differentiation, 0.1 μM and 1 μM of morusin prepared in Example 2-1 were respectively dissolved in DMEM (Hyclone) containing 50 ng/mL tumor necrosis factor alph (TNF-α; PeproTech, Rocky Hills, N.J., USA), followed by their treatment on the cells. After 6 hours, total RNA was isolated using TRIzol reagent (Invitrogen). The isolated total RNA was quantified using NanoDrop 1000 (Thermo Fisher Scientific Inc.). The quantified 16 μL of RNA was synthesized into cDNA using Reverse Transcriptase Premix (ELPIS-Biotech) and PCR machine (Gene Amp PCR System 2700: Applied Biosystems) at 42° C. for 55 minutes and at 70° C. for 15 minutes. The PCR was performed by repeating 30 cycles at 95° C. for 30 seconds, at 60° C. for 1 minute and at 72° C. for 1 minute with 4 μl of 16 μl cDNA, the following specific primers (Bioneer), and PCR premix (ELPIS-Biotech): […]

The subject of a further test is myogenin. The test can be described thus: myogenin mRNA expression by RT-PCR in L6 muscle cells. Type of test: cell-based. As to conditions: 6 days. As to the method: Muscle cells, L6 myoblasts (ATCC) were added to a 6-well plate at 2×10^5 cells/ml together with DMEM (Hyclone) containing 10% FBS (Hyclone). When the cell density reached about 80 to 85%, the medium in the wells was removed. […] Meanwhile, a group treated with 0.01% DMSO instead of the sample was used as a control group. This procedure was carried out for 6 days in two days to differentiate and total RNA was isolated using TRIzol reagent (Invitrogen. Carlsbad, Calif., USA). The isolated total RNA was quantified using NanoDrop 1000 (Thermo Fisher Scientific Inc., MA, USA). Quantified 16 μL of RNA was synthesized into cDNA using Reverse Transcriptase Premix (ELPIS-Biotech) and PCR machine (Gene Amp PCR System 2700: Applied Biosystems, MA, USA) at 42° C. for 55 minutes and 70° C. for 15 minutes. 4 μL out of 16 μL cDNA was amplified by PCR using the following specific primers (Bioneer, Daejeon, Republic of Korea) and PCR premix (ELPIS-Biotech). PCR was performed by repeating 30 cycles of 95° C. for 30 seconds, 60° C. for 1 minute, and 72° C. for 1 minute.
PCR-amplified cDNA was separated by electrophoresis on 1.5% agarose gel and cDNA band was identified using G:BOX EF imaging system (Syngene).
L6 myoblast (ATCC) were cultured in the same manner as in Example 7. […]

From patent publication US10576057B2, “Methods for treating muscle wasting and degeneration diseases” (NEWTREE CO., LTD., priority 2015, dated 2020) come the findings set out here.

Turning to `CC(C)=CCc1c(-c2ccc(O)cc2O)oc2c([C@H]3C=C(C)C[C@@H](c4ccc(O)cc4O)[C@@H]3C(=O)c3ccc(O)cc3O)c(O)cc(O)c2c1=O` [Kuwanon G, 8-[(1S,5R,6S)-6-(2,4-Dihydroxybenzoyl)-5-(2,4-dihydroxyphenyl)-3-methyl-2-cyclohexen-1-yl]-2-(2,4-dihydroxyphenyl)-5,7-dihydroxy-3-(3-methyl-2-buten-1-yl)-4H-chromen-4-one], in the test on atrogin-1 (concentration not given), the “mRNA expression of atrogin-1” value is on record as “decreased”. Moreover, the “expression of myogenin mRNA” value with myogenin (1 μM and 5 μM) is “increased”.
With `CC(C)=CCc1c(-c2ccc(O)cc2O)oc2c3c(cc(O)c2c1=O)OC(C)(C)C=C3` [Morusin, 2-(2,4-Dihydroxyphenyl)-5-hydroxy-8,8-dimethyl-3-(3-methyl-2-buten-1-yl)-4H,8H-benzo[1,2-b:3,4-b′]dipyran-4-one], the “mRNA expression of atrogin-1” value in the test on atrogin-1 (0.1 μM and 1 μM, 6 hours) is recorded as “decreased”. In addition, the “expression of myogenin mRNA” value in the test with myogenin (0.1 and 1 μM) is reported as “increased”.
